Tests used:
[1] = tested on: hyperuricemia mouse model; assay: Therapeutic effect in hyperuricemia model mice (0.15% high-purine feed), Example 9; format: in vivo, C57BL/6 mice; settings: for serum uric acid during treatment: Allopurinol daily in drinking water
Text: Female C57BL/6 mice aged 6 to 8 weeks were purchased from SPF (BEIJING) BIOTECHNOLOGY CO., LTD. The mice were randomly divided into 4 groups and subjected to different treatments, i.e., one group was fed normally, and the other three groups were constructed as models of hyperuricemia. For the model mice, the mice were fed with 0.15% high-purine feed starting from Day −14, that is, the hyperuricemia model was constructed by continuous high-purine diet. On Day 0, blood of all the mice was collected by orbital sampling, and serum was separated to detect uric acid levels. After confirming that the models of mice were successfully modeled, the mice were administrated with drug. The mice that were not subjected to the model construction were raised normally and administrated through tail vein injection with 200 μL of PBS (Control group, G1). The mice were subject to the model construction, and on 14 days after the model construction, the mice were administrated through tail vein injection with 200 μL of PBS (PBS group, G2). […] At different time points after the drug administration, blood of the mice was collected by orbital sampling, and the serum was separated and analyzed for uric acid and other biochemical indices. The changes in weight of the mice were recorded throughout the model construction and drug administration. […] The liver tissue was taken for metabolomics analysis, and the heart, liver, spleen, lung, kidney, and other tissues and organs were fixed and analyzed for pathological changes by H&E staining.
The same method as step 1 of the present example was used to construct the hyperuricemia mouse model, and the therapeutic effect of the novel lipid nanoparticle Uox1@iLAND in the hyperuricemia mouse model was evaluated. […] At different time points after the drug administration, blood of the mice was collected by orbital sampling, and the serum was separated and the uric acid level was measured.

[2] = tested on: hyperuricemia mouse model; assay: Therapeutic effect in hyperuricemia model mice (uric acid inhibitors injected subcutaneously), Example 8; format: in vivo, C57BL/6 mice; settings: mUox@iLAND 200 μL tail vein once; Allopurinol daily in drinking water; vs PBS group; FIG. 15
Text: Female C57BL/6 mice aged 6 to 8 weeks were purchased from SPF (BEIJING) BIOTECHNOLOGY CO., LTD. The mice were randomly divided into 4 groups and subjected to different treatments, i.e., one group was fed normally, and the other three groups were constructed as models of hyperuricemia. For model mice, uric acid inhibitors were subcutaneously injected on Day −14. On Day 0, blood of all the mice was collected by orbital sampling, and serum was separated to detect uric acid levels. After confirming that the models of mice were successfully modeled, the mice were administrated with drug. The mice that were not subjected to the model construction were raised normally and administrated through tail vein injection with 200 μL of PBS (Control group, G1). The mice were subject to the model construction, and on 14 days after the model construction, the mice were administrated through tail vein injection with 200 μL of PBS (PBS group, G2). […] At different time points after the drug administration, blood of the mice was collected by orbital sampling, and the serum was separated and analyzed for uric acid and other biochemical indices. The changes in weight of the mice were recorded throughout the model construction and drug administration.

Structure (SMILES): Oc1ncnc2[nH]ncc12 [Allopurinol]
- serum uric acid level reached ([1]; step 1, Allopurinol daily in drinking water, FIG. 19): around 0 μM
- serum uric acid during treatment ([1]; step 1, mUox@iLAND 200 μL tail vein once, FIG. 19): lowered the uric acid level below the normal level
- serum uric acid during treatment ([1]; step 2, Uox1@iLAND 200 μL tail vein once, FIG. 24): lower the uric acid level to a level same as the normal level or a level lower than the normal level
- serum uric acid during treatment [2]: able to maintain a certain level of uric acid
